# Source: patent US10308911B2, “Methods for generating the inner ear and other cranial placode-derived tissues using pluripotent stem cells” (Indiana University Research & Technology Corporation, priority 2012, dated 2019)
# “Also recorded” adds a separate entry of the source.
# Assays:
# Assay type in all cases: cell-based, mouse
# [1] = test system: ESC aggregates; experiment: Otic placode and otic vesicle induction (Pax2/Pax8/Ecad expression, vesicle counts)
# Method: On day 8 of differentiation, cell aggregates are transferred to 24 well plates (Lipidure Coat, NOF; 4-8 aggregates per well) in N2 Medium containing 1% MATRIGEL™ (a gelatinous protein mixture secreted by Engelbreth-Holm-Swarm (EHS) mouse sarcoma cells) (v/v). N2 Medium contains Advanced DMEM/F12, 1×N2 Supplement, 1 mM Penicillin/Streptomycin or 50 μg/mL Normocin (Invivogen) and 1 mM GlutaMax.
# (§1) The following small molecules and recombinant proteins were used: recombinant human BMP4 (10 ng/mL; Stemgent), human FGF2 (25 ng/mL; Peprotech), XAV939 (1 μM; Santa Cruz), SU5402 (10 μM; BioVision), SB-431542 (1 μM; Tocris Bioscience), and LDN-193189 (100 nM; Stemgent).
# (§2) RNA was isolated using the RNeasy Minikit (Qiagen) and treated with TURBO DNase (Ambion). Single-stranded cDNA was synthesized using Omniscript reverse transcriptase (Qiagen) and Oligo-dT primers. All amplicons had standardized sizes of 100-110 bps. cDNA samples were amplified on an ABI PRISM 7900HT Sequence Detection System (Applied Biosystems) using the SYBR Green PCR Master Mix (Applied Biosystems). For each PCR reaction, a mixture containing cDNA template (5 ng), Master Mix, and forward and reverse primers (400 nM each) was treated with uracil N-glycosylase at 50° C. for 2 min before undergoing the following program: 1 cycles, 95° C., 10 min; 45 cycles, 95° C., 15 sec, 60° C., 1 min; 1 cycles, 95° C., 15 sec, 60° C., 15 sec, 95° C., 15 sec; 72° C., hold. Melting curve analysis was performed to confirm the authenticity of the PCR product. The mRNA level for each gene was calculated relative to L27 mRNA expression.
# The percentage of epithelial cells expressing Pax8/Ecad was established by analyzing serial sections of day 6 and 8 aggregates. Data are representative of 6-8 aggregates from at least 3 separate experiments. For analysis of each aggregate, 5 cryosections were chosen at random positions along the z-axis of the aggregate. Using Nikon Elements or NIH ImageJ software, the Ecad^+ outer-epithelium was outlined and cell counting of DAPI and Pax8^+ nuclei along the length of the epithelium established a percentage for each cryosection.
# Similarly, the number of Myo7a^+ hair cells in each day 20 aggregate was determined by analyzing 10 μm serial cryosections. Each biological sample represents the average number of hair cells counted in 4-6 cell aggregates and data are representative of the average from 3 separate experiments (15 aggregates total for each condition). Odd and even numbered cryosections were analyzed separately and averaged to avoid double counting. The number of vesicles was quantified similarly, but every third section was analyzed to avoid double counting and allow for analysis of three separate staining combinations. Vesicles with a long axis diameter larger than 30 μm were accounted for to avoid double counting.
# [2] = test system: ESC aggregates; experiment: Pre-placodal ectoderm induction in BMP/SB aggregates (marker expression, epithelial thickness)
# Method: On day 4-5, the differentiation medium is replaced with differentiation medium containing FGF2 in a final concentration range of about 5 ng/ml to about 100 ng/ml (with a preferred final concentration of about 25 ng/mL) or another FGF selected from FGF 1-FGF23), and a BMP inhibitor. In some embodiments, the BMP inhibitor is LDN-193189 (CAS No. 1062368-24-4 at about 100 nM). Alternatively, DMH1 (CAS No. 1206711-16-1) or Dorsomorphin (CAS No. […]) can be used as the BMP inhibitor were added to each well at 6× concentration in 25 μL of fresh media. The extracellular matrix protein concentration (e.g., MATRIGEL™ (a gelatinous protein mixture secreted by Engelbreth-Holm-Swarm (EHS) mouse sarcoma cells) at 2% (v/v)) is maintained throughout days 1-8. Culture of the non-neural ectoderm cells under these conditions yields preplacodal ectoderm, epithelium characterized by expression of at least one of Dlx3, Dlx5, Pax2, Pax8 and Eya1. The concentration of MATRIGEL™ (a gelatinous protein mixture secreted by Engelbreth-Holm-Swarm (EHS) mouse sarcoma cells) or another extracellular matrix protein, as mentioned herein, is maintained at 2% (v/v) throughout days 1-8.
# as §1, §2
# Aggregates were fixed with 4% paraformaldehyde. […]
# The apparent thickness of epithelia was determined by analyzing cryosections stained with Ncad (Control) or Ecad antibodies (all other conditions) on days 3-6. […] For each aggregate, 3 serial sections were analyzed. Five points along the epithelium were randomly chosen and the thickness was measured using Nikon Elements image analysis tools.
# [3] = test system: ESC aggregates; experiment: Non-neural ectoderm induction in SFEBq 3D culture (qPCR, immunostaining)
# Method: In an exemplary embodiment using mES cells, during days 0-3, serum-free floating culture of embryoid body-like aggregate with quick reaggregation (SFEBq) to generate EBs is initiated by dissociation of adherent mES cells into a cell suspension by trypsinization (e.g., with 0.25% Trypsin-EDTA, and resuspended in “Differentiation Medium”. Differentiation Medium is composed of Glasgow Minimal Essential Medium (G-MEM) supplemented with 1.5% knockout serum replacement (KSR; Invitrogen), 0.1 mM non-essential amino acids, 1 mM sodium pyruvate, 1 mM Penicillin/Streptomycin and 1 mM 2-mercaptoethanol. Cells are then plated in 100 μl/well in a range of about 1,000-15,000 cells, but preferably about 3000 cells, a in 96-well low cell adhesion U-bottom plates. On day 1, half of the medium in each well is exchanged for fresh Differentiation Medium containing an extracellular matrix protein, e.g., MATRIGEL™ (a gelatinous protein mixture secreted by Engelbreth-Holm-Swarm (EHS) mouse sarcoma cells) (2% v/v final concentration), laminin (50-400 μg/ml), or laminin plus entactin (50-400 μg/ml each).
# On day 3 after initiating formation of EBs, a BMP, e.g., BMP2, BMP4, or BMP7 and a TGFβ inhibitor are added to the culture medium. The concentration of BMP, e.g., BMP4, to be used in the method can range from at least about 1 ng/ml to about 50 ng/ml, e.g., about 2 ng/ml, 4 ng/ml, 5 ng/ml, 7 ng/ml, 12 ng/ml, 15 ng/ml, 20 ng/ml, 25 ng/ml, 32 ng/ml, 40 ng/ml, or another concentration of a BMP from at least about 1 ng/ml to about 50 ng/ml. In some embodiments, the BMP to be used is BMP4 at a concentration of about 10 ng/ml. BMP 4. In some embodiments, the TGFβ inhibitor to be used is SB 431542 (CAS No. 301836-41-9, at a final concentration of about 1 μM). Alternatively, any of the following TGFβ inhibitors may be used: A 83-01 (CAS No. 909910-43-6), GW 788388 (CAS No. 452342-67-5), LY 364947 (CAS No. 396129-53-6), RepSox (CAS No. 446859-33-2), SB 505124 (CAS No. 694433-59-5), SB 525334 (CAS No. 356559-20-1), or SD 208 (CAS No. […]) at a concentration of about 0.1 μM to about 5 μM.
# as §1
# RNA was isolated using the RNeasy Minikit (Qiagen) and treated with TURBO DNase (Ambion). Single-stranded cDNA was synthesized using Omniscript reverse transcriptase (Qiagen) and Oligo-dT primers. […] The mRNA level for each gene was calculated relative to L27 mRNA expression. […]
# [4] = qPCR of day 5 samples, 10 ng/mL BMP vs vehicle control
molecule,measurement,setting,value
Cc1c[nH]c(-c2cnc(NCCNc3ccc(C#N)cn3)nc2-c2ccc(Cl)cc2Cl)n1 [CHIR99021],abundance of Pax2/Ecad+ vesicles with a luminal diameter greater than 50 μm (large vesicles),"[1]; CHIR99021 3 μM days 8-10, read on day 12",higher abundance
"c1ccc2c(-c3cnn4cc(-c5ccc(N6CCNCC6)cc5)cnc34)ccnc2c1 [LDN, LDN-193189]",Sox1 expression after LDN treatment,[2]; BMP/SB aggregates,does not induce
same,Dlx3 expression in BMP/SB aggregates after BMP inhibition,[2]; LDN treatment on day 4.5,maintained expression of Dlx3
same,Dlx3 expression after LDN treatment,[2]; treatment on or before day 4,suppresses
"NC(=O)c1ccc(-c2nc(-c3ccc4c(c3)OCO4)c(-c3ccccn3)[nH]2)cc1 [SB, SB-431542]",level of brachyury expression induced by BMP,"[3]; SB added to BMP, n=3",decreases
Cc1c[nH]c(/C=C2\C(=O)Nc3ccccc32)c1CCC(=O)O [SU5402],epithelial thickening,[2]; SU5402 (10 μM) following BMP/SB-LDN treatment,abolishes epithelial thickening
Oc1nc(-c2ccc(C(F)(F)F)cc2)nc2c1CSCC2 [XAV939],number of prosensory vesicles,"[1]; XAV939 (1 μM) from day 8-10, vesicles counted on day 12",significantly decreased; also recorded: decreases
same,prevalence of Pax2+ vesicles,[1]; XAV939 from day 8-10,reduced
same,generation of otic vesicles following BMP/SB-FGF/LDN treatment,[1]; XAV939 on days 8-10,blocked
FGF: recombinant human FGF2 (25 ng/mL; Peprotech),Pax8 expression versus FGF dosage,"[1]; qPCR, n=4, 25, 50 and 100 ng/mL not significantly different",dependent on FGF dosage
"BMP4: recombinant human BMP4 (bone morphogenetic protein), 10 ng/mL; Stemgent (protein, UniProt P12644 293-408, looked up) Bone morphogenetic protein 4: SPKHHSQRARKKNKNCRRHSLYVDFSDVGWNDWIVAPPGYQAFYCHGDCPFPLADHLNSTNHAIVQTLVNSVNSSIPKACCVPTELSAISMLYLDEYDKVVLKNYQEMVVEGCGCR",brachyury+ cells in aggregates,"[3]; day 5, BMP-treated aggregates",60.8±3.9%
same,neuroectoderm marker Sox1 expression,[3]; [4],downregulated
same,non-neural ectoderm marker Dlx3 expression,[3]; [4],upregulated
